Data as given in patent US8686003B2, “Tissue non-specific alkaline phosphatase inhibitors and uses thereof for treating vascular calcification” (Sanford-Burnham Medical Research Institute, priority 2007, dated 2014).

What was measured:
[1] = molecular target: T1, tissue-nonspecific alkaline phosphatase (TNAP) (Homo sapiens, UniProt P05186); test: TNAP inhibition screening assay (colorimetric pNPP / luminescence CDP-star), IC50; assay type: biochemical; conditions: Tables A-H; tissue-nonspecific alkaline phosphatase inhibitors
T1 construct: made in house; host or cells: COS-1 cells, transient expression; dialyzed serum-free conditioned medium
T1 sequence (P05186 18-502 limits assumed): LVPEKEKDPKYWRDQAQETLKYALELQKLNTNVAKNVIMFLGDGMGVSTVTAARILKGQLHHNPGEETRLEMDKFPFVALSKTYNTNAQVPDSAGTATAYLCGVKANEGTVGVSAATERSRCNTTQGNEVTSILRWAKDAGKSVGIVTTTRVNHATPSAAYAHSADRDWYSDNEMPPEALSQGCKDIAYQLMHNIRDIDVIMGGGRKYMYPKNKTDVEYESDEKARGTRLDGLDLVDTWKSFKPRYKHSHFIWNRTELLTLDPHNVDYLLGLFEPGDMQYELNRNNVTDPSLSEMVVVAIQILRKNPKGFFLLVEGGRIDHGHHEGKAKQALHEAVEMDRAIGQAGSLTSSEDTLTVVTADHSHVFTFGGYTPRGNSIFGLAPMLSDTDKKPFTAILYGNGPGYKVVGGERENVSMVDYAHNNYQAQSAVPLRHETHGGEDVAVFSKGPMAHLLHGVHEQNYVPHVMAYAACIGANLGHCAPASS
Method: (§1) Expression plasmids containing a secreted epitope-tagged TNAP, PLAP and IAP were transfected into COS-1 cells for transient expression using a standard electroporation method. Medium was replaced to Opti-MEM 24 hours later, and the serum free media containing secreted proteins were collected 60 hours after electroporation. Conditioned medium was dialyzed against TBS containing 1 mM MgCl2 ad 20 μM ZnCl2 (to remove phosphate) and filtrated with a 2 μm cellulose acetate filter.
A TNAP stock solution was diluted 120-fold and about 12 ul of diluted TNAP solution were dispensed into 96 well microtiter plates with half area bottom (Costar, Corning, N.Y.) by an auto dispenser (Matrix, Hudson, N.H.). A robotic liquid handler, Biomek™ FX (Beckman Coulter, Fullerton, Calif.) dispensed about 2.5 μl of each compound (dissolved in 10% DMSO) from the library plates. Plates were incubated at room temperature for at least one hour to allow TNAP to interact with each compound prior to addition of about 10.5 μl substrate solution (1.19 mM pNPP). After about 30 minutes of incubation, A405 nm was measured with a microtiter plate reader, Analyst™ HT (Molecular Devices, Sunnyvale, Calif.). Both the enzyme (TNAP) and substrate (pNPP) solution were made in diethanolamine (DEA) buffers; the final reaction contains 1M DEA-HCl buffer, pH about 9.8, containing about 1 mM MgCl2 and about 20 μM ZnCl2.
Compound aliquots (4 uL @ 100 uM in 10% DMSO) were added with about 8 uL of TNAP working solution, prepared by 800-fold dilution of TNAP in 2.5-fold assay buffer (250 mM DEA, pH 9.8, 2.5 mM MgCl2, 0.05 mM ZnCl2). CDP-star substrate solution (about 8 uL of 125 uM in water) was added to each well. […] Plates (white 384-well small volume Greiner 784075) were incubated at room temperature for about 0.5 hour and luminescence signal was measured using an EnVision plate reader (PerkinElmer).

human TNAP = molecular target: T2, human TNAP (Homo sapiens, UniProt P05186); test: Enzyme kinetic experiments, Ki and mechanism of TNAP inhibition; assay type: biochemical; conditions: Tables D and E; pH not given; read-out: Ki
T2 construct: made in house; host or cells: COS-1 cells, transient expression; dialyzed serum-free conditioned medium
T2 sequence (P05186 18-502 limits assumed): T1 sequence (P05186 18-502 limits assumed)
Method: as §1
[…] TNAP, PLAP and IAP activities were adjusted to an approximate ΔA405 nm, equivalent to 1, measured after 30 min. Residual AP activity in the presence of inhibitors was expressed as percentage of the control activity. To investigate the mechanism of inhibition, double reciprocal plots of enzyme activity (expressed as mA405 nm min^−1) vs. substrate concentration were constructed, in the presence of various concentrations of added inhibitors (0-30 μM). The y-axis intercepts of the 1/v vs. 1/[S] plots, were then plotted vs. [I] to graphically extract Ki values as the x-intercept in this plot. […] Inhibitors were further tested and sorted based on their kinetic properties at pH 7.4 using PPi, the relevant natural substrate of TNAP. […] Amounts of released phosphate were measured using the Biomol Green Reagent (Biomol Research Laboratories, Inc., Plymouth Meeting, Pa.).

SMILES	IC50 [1]	Ki (human TNAP)
N#C/C(=C\c1ccc(O)c(O)c1)C(=O)NCCCc1ccccc1 [Compound H2]	5.16 µM	–
O=C(O)c1cc(-c2ccccc2Cl)n[nH]1 [Compound A1, 3-(2-chlorophenyl)-1H-pyrazole-5-carboxylic acid]	0.68 µM	–
COC(=O)c1cc(-c2c[nH]c3ccccc23)[nH]n1 [Compound A2, methyl 3-(1H-indol-3-yl)-1H-pyrazole-5-carboxylate]	0.81 µM	–
COC(=O)c1cc(-c2ccccc2)n[nH]1 [Compound A4, methyl 3-phenyl-1H-pyrazole-5-carboxylate]	0.97 µM	–
COCc1n[nH]c2c1C(c1cc(OC)c(O)c(OC)c1)C(C#N)=C(N)O2 (stereo not shown) [Compound B6, 6-amino-4-(4-hydroxy-3,5-dimethoxyphenyl)-3-(methoxymethyl)-1,4-dihydropyrano[2,3-c]pyrazole-5-carbonitrile]	5.25 µM	–
COc1ccc2c(c1)CCc1c-2n[nH]c1C(=O)O [Compound B9, 7-methoxy-4,5-dihydro-2H-benzo [g]indazole-3-carboxylic acid]	0.32 µM	–
O=C(O)c1[nH]nc2c1COc1ccccc1-2 [Compound B10, 2,4-dihydrochromeno[4,3-c]pyrazole-3-carboxylic acid]	1.35 µM	–
CC1(C)CC(=O)c2c(n[nH]c2-c2cccs2)C1 [Compound B2, 6,6-dimethyl-3-(thiophen-2-yl)-6,7-dihydro-2H-indazol-4(5H)-one]	3.67 µM	–
Cc1cc(O)oc2nnc(-c3ccccc3)c1-2 [Compound B4, 4-methyl-3-phenylpyrano[2,3-c]pyrazol-6-ol]	0.99 µM	–
c1ccc(-c2n[nH]c3c2CCC3)cc1 [Compound B11, 3-phenyl-1,4,5,6-tetrahydrocyclopenta[c]pyrazole]	3.4 µM	–
Cn1cccc1-c1cc(C(=O)O)[nH]n1 [Compound A7, 3-(1-methyl-1H-pyrrol-2-yl)-1H-pyrazole-5-carboxylate]	10.2 µM	–
COC(=O)c1cc(-c2ccc(Br)cc2)n[nH]1 [Compound A8, methyl 3-(4-bromophenyl)-1H-pyrazole-5-carboxylate]	0.31 µM	–
CC1(C)CC(=O)c2c(n[nH]c2Cc2ccccc2)C1 [Compound B3, 3-benzyl-6,6-dimethyl-6,7-dihydro-2H-indazol-4(5H)-one]	0.57 µM	–
Cc1cc(NC(=O)COC(=O)c2[nH]nc3ccccc23)no1 [Compound B8, 2-(5-methylisoxazol-3-ylamino)-2-oxoethyl 2H-indazole-3-carboxylate]	9.43 µM	–
CCCCc1[nH]nc2c1C(=O)CC(C)(C)C2 [Compound B1, 3-butyl-6,6-dimethyl-6,7-dihydro-2H-indazol-4(5H)-one]	1.51 µM	–
Oc1cc(-c2cccc3ccccc23)n[nH]1 [Compound A5, 3-(napthalen-1-yl)-1H-pyrazol-5-ol]	3.24 µM	–
Nc1[nH]nc(-c2ccc(Br)cc2)c1Cl [Compound A6, 3-(4-bromophenyl)-4-chloro-1-H-pyrazol-5-amine]	6.51 µM	–
O=C(O)c1cc(-c2ccc(Cl)cc2)n[nH]1 [Compound A3, 3-(4-chlorophenyl)-1H-pyrazole-5-carboxylic acid]	0.95 µM	–
COc1ccc(-c2nnc3oc(O)cc(C)c2-3)cc1 [Compound B5, 3-(4-methoxyphenyl)-4-methylpyrano[2,3-c]pyrazol-6-ol]	1.35 µM	–

Continued, values first:

IC50 [1]	Ki (human TNAP)	SMILES
0.75 µM	–	COc1ccc(C)cc1S(=O)(=O)Nc1cccnc1 [Compound F2]
1.06 µM	–	[H]/N=C(C)\C(C#N)=C(\O)CSc1nnc(-c2ccccc2Br)[nH]1 [Compound E4]
13 µM	–	Cc1nc2c3cnn(-c4ccc(C)c(C)c4)c3ncn2n1 [Compound E20]
5.39 µM	–	CCOC(=O)c1sc(NC(=O)CSc2nnc(-c3ccccc3OC)[nH]2)c(C#N)c1C [Compound C3, ethyl 4-cyano-5-{2-[5-(2-methoxyphenyl)-4H-1,2,4-triazol-3-ylthio]acetamide}-3-methylthiophene-2-carboxylate]
2.47 µM	–	Clc1ccccc1-c1n[nH]c(-c2ccccc2)n1 [Compound E8]
3.82 µM	–	COc1ccc(-c2nc3n(n2)C(=O)CC(c2ccco2)S3)cc1 (stereo not shown) [Compound E9]
0.33 µM	–	O=C1C2CC=CCC2C(=O)N1c1nnc(Cc2ccccc2)[nH]1 (stereo not shown) [Compound E2]
1.99 µM	–	COc1ccccc1-c1nnc(NC(C)=O)[nH]1 [Compound E5]
–	5.6 µM	Cn1ccnc1Sc1nc(Nc2ccccc2)nc(Nc2ccccc2)n1 [Compound E1]
4.68 µM	–	COc1ccc(OC)c(C(=O)CSc2nc3ccc[nH]c-3n2)c1 [Compound E12]
5.34 µM	–	Oc1nc2cc(Cl)ccc2n1-c1ccccc1 [Compound E13]
2.05 µM	–	O=P(O)(O)c1ccccc1OCCCCCOc1ccccc1P(=O)(O)O [Compound G2]
4.66 µM	–	O=C(CCCn1c(SCC(=O)c2ccc(O)c(O)c2)nc2ccccc2c1=O)NCC1CCCO1 (stereo not shown) [Compound H1]
3.79 µM	–	COc1ccccc1-c1nnc(SCc2ccccn2)[nH]1 [Compound C2, 2-((5-(2-methoxyphenyl)-4H-1,2,4-triazol-3-ylthio)methyl)pyridine]
3.94 µM	–	CCOC(=O)C1C(=O)Nc2nc3ccccc3n2C1C(C)C (stereo not shown) [Compound E10]
0.68 µM	–	CCCSc1nnc(NC(C)=O)[nH]1 [Compound E3]
2.02 µM	–	Nc1nc(CSc2n[nH]c(-c3ccccc3)n2)nc(Nc2ccccc2)n1 [Compound C1, N^2-phenyl-6-[(5-phenyl-1H-1,2,4-triazol-3-ylthio)methyl]-1,3,5-triazine-2,4-diamine]

IC50 [1]	Ki (human TNAP)	SMILES
1.66 µM	–	O=P(O)(O)c1ccccc1OCCOCCOc1ccccc1P(=O)(O)O [Compound G1]
8.45 µM	–	COc1ccc(OC)c(S(=O)(=O)Nc2ccc(O)c(Sc3nc[nH]n3)c2)c1 [Compound F4]
7.92 µM	–	Cc1ccc(-n2ccc3c2ncn2c(C)nnc32)cc1C [Compound E17]
6.26 µM	–	O=C(CSc1nc2ccc[nH]c-2n1)c1ccc(F)cc1 [Compound E15]
6.89 µM	–	Cc1cccc(C)c1OCc1nnc2c3cnn(C)c3ncn12 [Compound E16]
2.39 µM	–	COc1cc(C(=O)Nc2cc(-c3ccccc3)n[nH]2)cc(OC)c1OC [Compound E7]
5.83 µM	–	Cn1ncc2c1ncn1c(-c3ccccc3Cl)nnc21 [Compound E14]
10.3 µM	–	CC(C)C1N=C2c3ccccc3N=C(SCC(=O)c3ccc(O)c(O)c3)N2C1=O (stereo not shown) [Compound E18]
11.3 µM	–	Cc1ccsc1/C=c1\sc2ncnn2c1=O [Compound E19]
2.54 µM	–	O=C(CSc1nnc(-c2ccccc2Br)[nH]1)NC(=O)NCc1ccco1 [Compound C4, 2-[5-(2-bromophenyl)-4H-1,2,4-triazol-3-ylthio]-N-(furan-2-ylmethylcarbamoyl)acetamide]
1.93 µM	–	CCOc1ccc(C)cc1S(=O)(=O)Nc1cccnc1 [Compound F3]
1.57 µM	–	O=C(CSc1nnc(-c2ccccc2)[nH]1)NC(=O)NCc1ccco1 [Compound C5, N-(furan-2-ylmethylcarbamoyl)-2-(5-phenyl-4H-1,2,4-triazol-3-ylthio)acetamide]
9.5 µM	–	CC1(C)Cc2c(sc3cc4n(c(=N)c23)CCCCC4)CO1 [Compound E22]
1.99 µM	–	COc1cc(CSc2nnc[nH]2)c(OC)cc1CSc1nnc[nH]1 [Compound E6]
16 µM	–	Cn1ncc2c1ncn1nc(CCc3ccccc3)nc21 [Compound E21]
4.35 µM	–	C=CCSc1nc(-c2ccc(OC)cc2)n[nH]1 [Compound E11]
